Patent US5484717A, “Antibiotic 31F508α1, 31F508α2, 31F508β1, 31F508β2” (American Cyanamid Company, priority 1995, dated 1996)
≈ marks a conversion by molar mass, not a printed value. Where two headings read alike, the source gives them in different places.

Tests used:
[1] = tested on: CNS (ID-3941); assay: In vitro antibacterial activity, agar dilution MIC; assay type: cell-based; conditions: 18 h
Experimental: (§1) The in vitro antibacterial activity of 31F508α1 and α2 is determined against a spectrum of gram-positive and gram-negative bacteria by a standard agar dilution method. Mueller-Hinton agar with and without 5% sheep blood and two-fold decreasing concentrations of either 31F508α1 or α2 are poured into petri dishes. The agar surfaces are inoculated with 1 to 5×10^4 colony forming units of bacteria by means of the Steers replicating device. The lowest concentration of antibiotic that inhibits growth of a bacterial strain after 18 hours incubation is recorded as the minimal inhibitory concentration for that strain. The results are given in Table V with sheeps blood added to the agar.

[2] = tested on: E. faecalis (ID-2131); assay: In vitro antibacterial activity, agar dilution MIC; assay type: cell-based; conditions: Enterococcus faecalis, 18 h, read-out: Minimum Inhibitory Concentration
Experimental: as §1

[3] = tested on: E. coli (J2175); assay: In vitro antibacterial activity, agar dilution MIC; assay type: cell-based; conditions: Escherichia coli, 18 h, read-out: Minimum Inhibitory Concentration
Experimental: as §1

[4] = tested on: Streptococcus pneumoniae (ID-4444); assay: In vitro antibacterial activity, agar dilution MIC; assay type: cell-based; conditions: 18 h, read-out: Minimum Inhibitory Concentration
Experimental: as §1

[5] = tested on: E. faecium (12202); assay: In vitro antibacterial activity, agar dilution MIC; assay type: cell-based; conditions: Enterococcus faecium, 18 h, read-out: Minimum Inhibitory Concentration
Experimental: as §1

[6] = tested on: S. lutea (ATCC 9341); assay: In vitro antibacterial activity, agar dilution MIC; assay type: cell-based; conditions: 18 hours
Experimental: as §1

[7] = tested on: E. faecalis (12201); assay: In vitro antibacterial activity, agar dilution MIC; assay type: cell-based; conditions: Enterococcus faecalis, 18 h, read-out: Minimum Inhibitory Concentration
Experimental: as §1

[8] = tested on: E. faecalis (ID-1829); assay: In vitro antibacterial activity, agar dilution MIC; assay type: cell-based; conditions: Enterococcus faecalis, 18 h, read-out: Minimum Inhibitory Concentration
Experimental: as §1

[9] = tested on: Staphylococcus haemolyticus (ID-4061); assay: In vitro antibacterial activity, agar dilution MIC; assay type: cell-based; conditions: 18 h, read-out: Minimum Inhibitory Concentration
Experimental: as §1

[10] = tested on: CNS (ID-3120); assay: In vitro antibacterial activity, agar dilution MIC; assay type: cell-based; conditions: 18 h
Experimental: as §1

[11] = tested on: Staphylococcus aureus (ID-3105); assay: In vitro antibacterial activity, agar dilution MIC; assay type: cell-based; conditions: 18 h, read-out: Minimum Inhibitory Concentration
Experimental: as §1

[12] = tested on: CNS (ID-3276); assay: In vitro antibacterial activity, agar dilution MIC; assay type: cell-based; conditions: 18 h, read-out: Minimum Inhibitory Concentration, CNS (ID-3276), without sheep blood
Experimental: as §1

[13] = tested on: Staphylococcus aureus (ID-2727); assay: In vitro antibacterial activity, agar dilution MIC; assay type: cell-based; conditions: 18 h, read-out: Minimum Inhibitory Concentration
Experimental: as §1

[14] = tested on: P. aeruginosa (ATCC 27853); assay: In vitro antibacterial activity, agar dilution MIC; assay type: cell-based; conditions: 18 hours
Experimental: as §1

[15] = tested on: Staphylococcus aureus (ID-4379); assay: In vitro antibacterial activity, agar dilution MIC; assay type: cell-based; conditions: 18 h, read-out: Minimum Inhibitory Concentration
Experimental: as §1

[16] = tested on: E. Avium (ID-3953); assay: In vitro antibacterial activity, agar dilution MIC; assay type: cell-based; conditions: Enterococcus avium, 18 h, read-out: Minimum Inhibitory Concentration
Experimental: as §1

[17] = tested on: CNS (4615); assay: In vitro antibacterial activity, agar dilution MIC; assay type: cell-based; conditions: 18 h
Experimental: as §1

[18] = tested on: E. coli (J2445); assay: In vitro antibacterial activity, agar dilution MIC; assay type: cell-based; conditions: Escherichia coli, 18 h, read-out: Minimum Inhibitory Concentration
Experimental: as §1

[19] = tested on: Staphylococcus aureus (ATCC 29213); assay: In vitro antibacterial activity, agar dilution MIC; assay type: cell-based; conditions: ATCC29213, 18 h, read-out: Minimum Inhibitory Concentration
Experimental: as §1

[20] = tested on: E. coli (ATCC 25922); assay: In vitro antibacterial activity, agar dilution MIC; assay type: cell-based; conditions: 18 hours
Experimental: as §1

[21] = tested on: E. faecium (ID-3301); assay: In vitro antibacterial activity, agar dilution MIC; assay type: cell-based; conditions: Enterococcus faecium, 18 h, read-out: Minimum Inhibitory Concentration
Experimental: as §1

[22] = tested on: S. agalactiae (ID-4079); assay: In vitro antibacterial activity, agar dilution MIC; assay type: cell-based; conditions: Streptococcus agalactiae
Experimental: as §1

[23] = tested on: E. faecalis (ID-4168); assay: In vitro antibacterial activity, agar dilution MIC; assay type: cell-based; conditions: Enterococcus faecalis, 18 h, read-out: Minimum Inhibitory Concentration
Experimental: as §1

[24] = tested on: B. cereus (Bacto); assay: In vitro antibacterial activity, agar dilution MIC; assay type: cell-based; conditions: Bacillus cereus, 18 h, read-out: Minimum Inhibitory Concentration
Experimental: as §1

[25] = tested on: Staphylococcus aureus (SMITH); assay: In vitro antibacterial activity, agar dilution MIC; assay type: cell-based; conditions: 18 h, read-out: Minimum Inhibitory Concentration
Experimental: as §1

[26] = tested on: M. morganii (VGH 84-11); assay: In vitro antibacterial activity, agar dilution MIC; assay type: cell-based; conditions: Morganella morganii, 18 h, read-out: Minimum Inhibitory Concentration
Experimental: as §1

[27] = tested on: Staphylococcus aureus (ID-2371); assay: In vitro antibacterial activity, agar dilution MIC; assay type: cell-based; conditions: 18 h, read-out: Minimum Inhibitory Concentration
Experimental: as §1

[28] = tested on: E. faecium (ID-4133); assay: In vitro antibacterial activity, agar dilution MIC; assay type: cell-based; conditions: 18 hours
Experimental: as §1

[29] = tested on: Staphylococcus aureus (MEMC-89-4); assay: In vitro antibacterial activity, agar dilution MIC; assay type: cell-based; conditions: 18 h, read-out: Minimum Inhibitory Concentration
Experimental: as §1

[30] = tested on: S. Pyogenes (ID-3187); assay: In vitro antibacterial activity, agar dilution MIC; assay type: cell-based; conditions: Streptococcus pyogenes, 18 h, read-out: Minimum Inhibitory Concentration
Experimental: as §1

[31] = tested on: E. faecalis (ATCC 29212); assay: In vitro antibacterial activity, agar dilution MIC; assay type: cell-based; conditions: Enterococcus faecalis, ATCC29212, 18 h, read-out: Minimum Inhibitory Concentration
Experimental: as §1

[32] = Stability (conversion in neutral or basic solution; decomposition on drying); assay type: physicochemical; conditions: listed as α1
Experimental: The crude product is then separated into the α1, α2, β1 and β2 components and further purified by high performance liquid chromatography on a reverse-phase column equilibrated with 0.1% trifluoroacetic acid in water followed by slution with an acetonitrile gradient to 10%. Active fractions are pooled and freeze dried. Freeze dried fractions are dissolved in 0.01M hydrochloric acid, applied to a reverse phase column and eluted with an acetonitrile gradient to 10% resolves the two components α1 and α2. […] Beta is the quinone form of α1 or α2 having lost hydrogens from the oxygens connected to carbon10 and 13.
The freeze dried material is suspended in methanol and the insolubles removed by filtration. The soluble material is concentrated to dryness and the concentrate dissolved in 1% trifluoroacetic acid in water. Insolubles are removed by centrifugation. The soluble material is loaded onto a preparative reverse phase C18 column equilibrated with 0.1% trifluoroacetic acid in water. The column is eluted with an acetonitrile gradient to 10%. Active fractions containing the alpha component are pooled and freeze dried. Active fractions containing the beta component are adjusted to pH 8 with solid ammonium bicarbonate and extracted with methylene chloride. The beta component is stored in methylene chloride as drying leads to rapid decomposition. […]

SMILES: COc1c(C)c(O)c2c(c1O)C1COC3C4CC5C(N4)C(C2N2CCOC52)N13 (stereo not drawn) [31F508α1]
- MIC ([1]; read-out: Minimum Inhibitory Concentration, CNS (ID-3941), with 5% sheep blood): 0.06 mg/L (≈ 0.155 µM)
- MIC ([1]; read-out: Minimum Inhibitory Concentration, CNS (ID-3941), without sheep blood): 0.03 mg/L (≈ 0.0774 µM)
- MIC ([2]; with 5% sheep blood): 0.25 mg/L (≈ 0.645 µM)
- MIC ([2]; without sheep blood): 0.12 mg/L (≈ 0.31 µM)
- MIC ([3]; with 5% sheep blood): 2 mg/L (≈ 5.16 µM)
- MIC ([3]; without sheep blood): 1 mg/L (≈ 2.58 µM)
- MIC ([4]; with 5% sheep blood): 0.008 mg/L (≈ 0.0206 µM)
- MIC ([4]; without sheep blood): 0.002 mg/L (≈ 0.00516 µM)
- MIC ([5]; with 5% sheep blood): 0.25 mg/L (≈ 0.645 µM)
- MIC ([5]; without sheep blood): 0.03 mg/L (≈ 0.0774 µM)
- MIC ([6]; Micrococcus luteus, ATCC9341, without sheep blood, read-out: Minimum Inhibitory Concentration): 0.002 mg/L (≈ 0.00516 µM)
- Minimum Inhibitory Concentration ([6]; with 5% sheep blood): 0.002 µg/mL
- MIC ([7]; with 5% sheep blood): 0.06 mg/L (≈ 0.155 µM)
- MIC ([7]; without sheep blood): 0.03 mg/L (≈ 0.0774 µM)
- MIC ([8]; with 5% sheep blood): 0.5 mg/L (≈ 1.29 µM)
- MIC ([8]; without sheep blood): 0.12 mg/L (≈ 0.31 µM)
- MIC ([9]; with 5% sheep blood): 0.015 mg/L (≈ 0.0387 µM)
- MIC ([9]; without sheep blood): 0.008 mg/L (≈ 0.0206 µM)
- MIC ([10]; read-out: Minimum Inhibitory Concentration, CNS (ID-3120), with 5% sheep blood): 0.03 mg/L (≈ 0.0774 µM)
- MIC ([10]; read-out: Minimum Inhibitory Concentration, CNS (ID-3120), without sheep blood): 0.015 mg/L (≈ 0.0387 µM)
- MIC ([11]; with 5% sheep blood): 0.06 mg/L (≈ 0.155 µM)
- MIC ([11]; without sheep blood): 0.03 mg/L (≈ 0.0774 µM)
- MIC [12]: 0.008 mg/L (≈ 0.0206 µM)
- MIC ([13]; with 5% sheep blood): 0.015 mg/L (≈ 0.0387 µM)
- MIC ([13]; without sheep blood): 0.008 mg/L (≈ 0.0206 µM)
- MIC ([14]; Pseudomonas aeruginosa, ATCC27853, without sheep blood, read-out: Minimum Inhibitory Concentration): 2 mg/L (≈ 5.16 µM)
- Minimum Inhibitory Concentration ([14]; with 5% sheep blood): 2.000 µg/mL
- MIC ([15]; with 5% sheep blood): 0.12 mg/L (≈ 0.31 µM)
- MIC ([15]; without sheep blood): 0.03 mg/L (≈ 0.0774 µM)
- MIC ([16]; with 5% sheep blood): 0.25 mg/L (≈ 0.645 µM)
- MIC ([16]; without sheep blood): 0.06 mg/L (≈ 0.155 µM)
- MIC ([17]; read-out: Minimum Inhibitory Concentration, CNS (4615), with 5% sheep blood): 0.03 mg/L (≈ 0.0774 µM)
- MIC ([17]; read-out: Minimum Inhibitory Concentration, CNS (4615), without sheep blood): 0.015 mg/L (≈ 0.0387 µM)
- MIC ([18]; with 5% sheep blood): 0.12 mg/L (≈ 0.31 µM)
- MIC ([18]; without sheep blood): 0.06 mg/L (≈ 0.155 µM)
- MIC ([19]; Staphylococcus aureus (ATCC 29213), with 5% sheep blood): 0.12 mg/L (≈ 0.31 µM)
- MIC ([19]; Staphylococcus aureus (ATCC 29213-), without sheep blood): 0.06 mg/L (≈ 0.155 µM)
- MIC ([20]; Escherichia coli, ATCC25922, without sheep blood, read-out: Minimum Inhibitory Concentration): 1 mg/L (≈ 2.58 µM)
- Minimum Inhibitory Concentration ([20]; with 5% sheep blood): 1.000 µg/mL
- MIC ([21]; with 5% sheep blood): 0.12 mg/L (≈ 0.31 µM)
- MIC ([21]; without sheep blood): 0.06 mg/L (≈ 0.155 µM)
- MIC ([22]; 18 h, read-out: Minimum Inhibitory Concentration, S. acralactiae (ID-4079), without sheep blood): 0.004 mg/L (≈ 0.0103 µM)
- MIC ([22]; S. agalactiae (ID-4079), with 5% sheep blood, 18 hours, read-out: Minimum Inhibitory Concentration): 0.015 mg/L (≈ 0.0387 µM)
- MIC ([23]; with 5% sheep blood): 0.12 mg/L (≈ 0.31 µM)
- MIC ([23]; without sheep blood): 0.06 mg/L (≈ 0.155 µM)
- MIC ([24]; with 5% sheep blood): 1 mg/L (≈ 2.58 µM)
- MIC ([24]; without sheep blood): 0.5 mg/L (≈ 1.29 µM)
- MIC ([25]; with 5% sheep blood): 0.008 mg/L (≈ 0.0206 µM)
- MIC ([25]; without sheep blood): 0.004 mg/L (≈ 0.0103 µM)
- MIC ([26]; with 5% sheep blood): 2 mg/L (≈ 5.16 µM)
- MIC ([26]; without sheep blood): 1 mg/L (≈ 2.58 µM)
- MIC ([27]; with 5% sheep blood): 0.06 mg/L (≈ 0.155 µM)
- MIC ([27]; without sheep blood): 0.03 mg/L (≈ 0.0774 µM)
- MIC ([28]; Enterococcus faecium, without sheep blood, read-out: Minimum Inhibitory Concentration): 0.002 mg/L (≈ 0.00516 µM)
- Minimum Inhibitory Concentration ([28]; with 5% sheep blood): 0.002 µg/mL
- MIC ([29]; with 5% sheep blood): 0.06 mg/L (≈ 0.155 µM)
- MIC ([29]; without sheep blood): 0.03 mg/L (≈ 0.0774 µM)
- MIC ([30]; with 5% sheep blood): 0.004 mg/L (≈ 0.0103 µM)
- MIC ([30]; without sheep blood): 0.002 mg/L (≈ 0.00516 µM)
- MIC ([31]; with 5% sheep blood): 0.12 mg/L (≈ 0.31 µM)
- MIC ([31]; without sheep blood): 0.06 mg/L (≈ 0.155 µM)
- Conversion to the beta (quinone) form [32]: converts to the beta form
